How the values were obtained:
CDK2/Cyclin E1 = CDK2/Cyclin E1 (Homo sapiens (Human), UniProt P24941); assay: biochemical; conditions: CDK2_Ki (nM), phosphorylated CDK2/Cyclin E1, 150 μM ATP, Morrison tight-binding fit
Protocol: The assay was initiated with the addition of ATP, following a fifteen minutes pre-incubation of enzyme and inhibitor at room temperature in the reaction mixture. The reaction was stopped after 45 minutes at room temperature by the addition of 50 μL of 80 mM EDTA, pH 7.5.

CDK6/Cyclin D1 = CDK6/Cyclin D1 (Homo sapiens (Human), UniProt Q00534); assay: biochemical; conditions: CDK6_Ki (nM), non-phosphorylated CDK6/Cyclin D1, 2 mM ATP, Morrison fit
Sequence of CDK6/Cyclin D1 (Q00534 whole entry): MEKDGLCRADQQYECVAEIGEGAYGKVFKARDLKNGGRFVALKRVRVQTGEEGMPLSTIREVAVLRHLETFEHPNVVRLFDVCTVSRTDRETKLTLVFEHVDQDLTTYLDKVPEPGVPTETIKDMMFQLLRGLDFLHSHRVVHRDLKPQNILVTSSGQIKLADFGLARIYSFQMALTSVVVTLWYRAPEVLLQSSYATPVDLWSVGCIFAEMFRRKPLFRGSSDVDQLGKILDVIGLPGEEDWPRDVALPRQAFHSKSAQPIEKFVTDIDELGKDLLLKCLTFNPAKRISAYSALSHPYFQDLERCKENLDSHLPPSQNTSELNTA
Sequence of CDK6/Cyclin D1 (P24385 whole entry partner): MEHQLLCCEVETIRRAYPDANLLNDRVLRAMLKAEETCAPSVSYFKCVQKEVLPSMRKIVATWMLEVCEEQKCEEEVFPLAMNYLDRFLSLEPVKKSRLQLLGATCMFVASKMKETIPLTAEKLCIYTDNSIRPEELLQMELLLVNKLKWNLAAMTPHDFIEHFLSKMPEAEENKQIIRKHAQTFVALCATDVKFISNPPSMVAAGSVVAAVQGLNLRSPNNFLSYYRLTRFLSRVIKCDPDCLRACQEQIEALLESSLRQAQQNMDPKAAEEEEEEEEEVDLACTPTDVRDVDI

SMILES | Ki (CDK2/Cyclin E1) | Ki (CDK6/Cyclin D1)
Cc1cc2cnc(NC3CCN(S(=O)(=O)CC4CC4)CC3)nc2n([C@@H]2CCC[C@@]2(C)O)c1=O (single isomer, unassigned) [Example 116, (−)-2-({1-[(cyclopropylmethyl)sulfonyl]piperidin-4-yl}amino)-8-[(1R*,2R*)-2-hydroxy-2-methylcyclopentyl]-6-methylpyrido[2,3-d]pyrimidin-7(8H)-one] | 0.15 nM | 0.21 nM
COCCS(=O)(=O)N1CCC(Nc2ncc3ccc(=O)n([C@@H]4CCCC4(C)O)c3n2)CC1 (single isomer, unassigned) [Example 72, (−)-8-[(1R*,2R*)-2-hydroxy-2-methylcyclopentyl]-2-({1-[(2-methoxyethyl)sulfonyl]piperidin-4-yl}amino)pyrido[2,3-d]pyrimidin-7(8H)-one] | 0.42 nM | 1.09 nM
C[C@H]1CCC[C@H]1n1c(=O)c(CC(N)=O)cc2cnc(NC3CCN(S(C)(=O)=O)CC3)nc21 [Example 47, 2-(8-[(1R,2S)-2-methylcyclopentyl]-2-{[1-(methylsulfonyl)piperidin-4-yl]amino}-7-oxo-7,8-dihydropyrido[2,3-d]pyrimidin-6-yl)acetamide] | 0.27 nM | 1.09 nM
CS(=O)(=O)N1CCC(Nc2ncc3cc(C(F)F)c(=O)n(C4CCCC4)c3n2)CC1 [Example 30, 8-cyclopentyl-6-(difluoromethyl)-2-{[1-(methylsulfonyl)piperidin-4-yl]amino}pyrido[2,3-d]pyrimidin-7(8H)-one] | 1.35 nM | 0.34 nM
COCCS(=O)(=O)N1CCC(Nc2ncc3ccc(=O)n([C@H]4CCC[C@]4(C)O)c3n2)CC1 (single isomer, unassigned) [Example 73, (+)-8-[(1R*,2R*)-2-hydroxy-2-methylcyclopentyl]-2-({1-[(2-methoxyethyl)sulfonyl]piperidin-4-yl}amino)pyrido[2,3-d]pyrimidin-7(8H)-one] | 5.03 nM | 8.95 nM
C[C@@]1(O)CCC[C@H]1n1c(=O)ccc2cnc(NC3CCN(S(=O)(=O)C(F)(F)F)CC3)nc21 (single isomer, unassigned) [Example 88, (−)-8-[(1R*,2R*)-2-hydroxy-2-methylcyclopentyl]-2-({1-[(trifluoromethyl)sulfonyl]piperidin-4-yl}amino)pyrido[2,3-d]pyrimidin-7(8H)-one] | 1.34 nM | 1.99 nM
CS(=O)(=O)N1CCC(Nc2ncc3cc(CC(N)=O)c(=O)n([C@@H]4CCC[C@@H](O)C4)c3n2)CC1 (single isomer, unassigned) [Example 213, (+)-2-(8-[(1R*,3R*)-3-hydroxycyclohexyl]-2-{[1-(methylsulfonyl)piperidin-4-yl]amino}-7-oxo-7,8-dihydropyrido[2,3-d]pyrimidin-6-yl)acetamide] | 1.73 nM | 9.15 nM
CNS(=O)(=O)N1CCC(Nc2ncc3ccc(=O)n(C4CCCCCC4)c3n2)CC1 [Example 20, 4-[(8-cycloheptyl-7-oxo-7,8-dihydropyrido[2,3-d]pyrimidin-2-yl)amino]-N-methylpiperidine-1-sulfonamide] | 0.42 nM | 1.95 nM
CS(=O)(=O)N1CCC(Nc2ncc3ccc(=O)n([C@@H]4C[C@@H](O)CC[C@H]4F)c3n2)CC1 (single isomer, unassigned) [Example 218, (−)-8-[(1S*,2S*,5R*)-2-fluoro-5-hydroxycyclohexyl]-2-{[1-(methylsulfonyl)piperidin-4-yl]amino}pyrido[2,3-d]pyrimidin-7(8H)-one] | 6.28 nM | 14.3 nM
Cc1cc2cnc(NC3CCN(S(=O)(=O)C4CCS(=O)(=O)C4)CC3)nc2n([C@H]2CCC[C@]2(C)O)c1=O (single isomer, unassigned; isomer c) [Example 108, (+)-2-[(1-{[(3ξ)-1,1-dioxidotetrahydrothiophen-3-yl]sulfonyl}piperidin-4-yl)amino]-8-[(1R*,2R*)-2-hydroxy-2-methylcyclopentyl]-6-methylpyrido[2,3-d]pyrimidin-7(8H)-one-Isomer C] | 3.27 nM | 3.99 nM
CC[C@@]1(O)CCC[C@H]1n1c(=O)c(Cl)cc2cnc(NC3CCN(S(C)(=O)=O)CC3)nc21 (single isomer, unassigned) [Example 195, (−)-6-chloro-8-[(1R*,2R*)-2-ethyl-2-hydroxycyclopentyl]-2-{[1-(methylsulfonyl)piperidin-4-yl]amino}pyrido[2,3-d]pyrimidin-7(8H)-one] | 5.49 nM | 4.68 nM
CS(=O)(=O)N1CC[C@H](Nc2ncc3cc(CCO)c(=O)n(C4CCCC4)c3n2)[C@@H](F)C1 (single isomer, unassigned) [Example 156, (−)-8-cyclopentyl-2-{[(3S*,4S*)-3-fluoro-1-(methylsulfonyl)piperidin-4-yl]amino}-6-(2-hydroxyethyl)pyrido[2,3-d]pyrimidin-7(8H)-one] | 1.4 nM | 1.94 nM
C[C@]1(O)CCC[C@@H]1n1c(=O)c(CO)cc2cnc(NC3CCN(S(C)(=O)=O)CC3)nc21 (single isomer, unassigned) [Example 186, (+)-6-(hydroxymethyl)-8-[(1R*,2R*)-2-hydroxy-2-methylcyclopentyl]-2-{[1-(methylsulfonyl)piperidin-4-yl]amino}pyrido[2,3-d]pyrimidin-7(8H)-one] | 5.65 nM | 3.62 nM
C[C@H]1[C@H](O)CC[C@H]1n1c(=O)ccc2cnc(NC3CCN(S(C)(=O)=O)CC3)nc21 (single isomer, unassigned) [Example 210, (−)-8-[(1R*,2R*,3R*)-3-hydroxy-2-methylcyclopentyl]-2-{[1-(methylsulfonyl)piperidin-4-yl]amino}pyrido[2,3-d]pyrimidin-7(8H)-one] | 5.36 nM | 3.15 nM
C[C@@]1(O)CCC[C@H]1n1c(=O)c(C(F)(F)F)cc2cnc(NC3CCN(S(C)(=O)=O)CC3)nc21 [Example 132, 8-[(1R,2R)-2-hydroxy-2-methylcyclopentyl]-2-{[1-(methylsulfonyl)piperidin-4-yl]amino}-6-(trifluoromethyl)pyrido[2,3-d]pyrimidin-7(8H)-one] | 0.57 nM | 0.37 nM
COCCS(=O)(=O)N1CCC(Nc2ncc3ccc(=O)n(C4CCCC4)c3n2)CC1 [Example 15, 8-cyclopentyl-2-({1-[(2-methoxyethyl)sulfonyl]piperidin-4-yl}amino)pyrido[2,3-d]pyrimidin-7(8H)-one] | 0.46 nM | 0.76 nM
CC(F)(F)CNS(=O)(=O)N1CCC(Nc2ncc3ccc(=O)n([C@H]4CCC[C@]4(C)O)c3n2)CC1 (single isomer, unassigned) [Example 67, (+)-N-(2,2-difluoropropyl)-4-({8-[(1R*,2R*)-2-hydroxy-2-methylcyclopentyl]-7-oxo-7,8-dihydropyrido[2,3-d]pyrimidin-2-yl}amino)piperidine-1-sulfonamide] | 4.05 nM | 21.6 nM
C[C@H]1CCC[C@H]1n1c(=O)c(CO)cc2cnc(NC3CCN(S(C)(=O)=O)CC3)nc21 [Example 50, 6-(hydroxymethyl)-8-[(1R,2S)-2-methylcyclopentyl]-2-{[1-(methylsulfonyl)piperidin-4-yl]amino}pyrido[2,3-d]pyrimidin-7(8H)-one] | 0.27 nM | 0.08 nM
C[C@@]1(O)CCC[C@H]1n1c(=O)c(F)cc2cnc(NC3CCN(S(C)(=O)=O)CC3)nc21 (single isomer, unassigned) [Example 5, (+)-6-fluoro-8-[(1R*,2R*)-2-hydroxy-2-methylcyclopentyl]-2-{[1-(methylsulfonyl)piperidin-4-yl]amino}pyrido[2,3-d]pyrimidin-7(8H)-one] | 4.75 nM | 13.1 nM
C[C@@]1(O)CCC[C@H]1n1c(=O)c(Cl)cc2cnc(N[C@H]3CCN(S(C)(=O)=O)C[C@H]3F)nc21 (single isomer, unassigned) [Example 191, (−)-6-chloro-2-{[(3R*,4S*)-3-fluoro-1-(methylsulfonyl)piperidin-4-yl]amino}-8-[(1R,2R)-2-hydroxy-2-methylcyclopentyl]pyrido[2,3-d]pyrimidin-7(8H)-one] | 0.4 nM | 0.58 nM
COC(C)(C)CNS(=O)(=O)N1CCC(Nc2ncc3cc(C)c(=O)n([C@H]4CCC[C@]4(C)O)c3n2)CC1 (single isomer, unassigned) [Example 99, (+)-4-({8-[(1R*,2R*)-2-hydroxy-2-methylcyclopentyl]-6-methyl-7-oxo-7,8-dihydropyrido[2,3-d]pyrimidin-2-yl}amino)-N-(2-methoxy-2-methylpropyl)piperidine-1-sulfonamide] | 2.88 nM | 14.3 nM
CC[C@@]1(O)CCC[C@H]1n1c(=O)ccc2cnc(NC3CCN(S(C)(=O)=O)CC3)nc21 (single isomer, unassigned) [Example 193, (−)-(8-[(1R*,2R*)-2-ethyl-2-hydroxycyclopentyl]-2-{[1-(methylsulfonyl)piperidin-4-yl]amino}pyrido[2,3-d]pyrimidin-7(8H)-one] | 2.55 nM | 2.27 nM
CC[C@]1(O)CCC[C@@H]1n1c(=O)ccc2cnc(NC3CCN(S(C)(=O)=O)CC3)nc21 (single isomer, unassigned) [Example 194, (+)-(8-[(1R*,2R*)-2-ethyl-2-hydroxycyclopentyl]-2-{[1-(methylsulfonyl)piperidin-4-yl]amino}pyrido[2,3-d]pyrimidin-7(8H)-one] | 4.01 nM | 5.37 nM
COCc1cc2cnc(NC3CCN(S(C)(=O)=O)CC3)nc2n([C@H]2CCC[C@H]2C)c1=O [Example 49, 6-(methoxymethyl)-8-[(1S,2R)-2-methylcyclopentyl]-2-{[1-(methylsulfonyl)piperidin-4-yl]amino}pyrido[2,3-d]pyrimidin-7(8H)-one] | 4.43 nM | 1.63 nM
CS(=O)(=O)N1CC[C@H](Nc2ncc3cc(CC(N)=O)c(=O)n(C4CCCC4)c3n2)[C@@H](F)C1 (single isomer, unassigned) [Example 160, (−)-2-(8-cyclopentyl-2-{[(3S*,4S*)-3-fluoro-1-(methylsulfonyl)piperidin-4-yl]amino}-7-oxo-7,8-dihydropyrido[2,3-d]pyrimidin-6-yl)acetamide] | 4.07 nM | 3.55 nM

Reference: patent publication US10233188B2, “CDK2/4/6 inhibitors” (priority 2016, dated 2019)
